Earlier results, collected in patent US20240044899A1, “BIOMARKERS FOR FIMEPINOSTAT THERAPY” (Curis, Inc, priority 2021, published 2024).

System: MYC-altered DLBCL/HGBL patients
Details: Prospective phase 2; MYC IHC >40%; sample size 47; cited from earlier work

O=C(/C=C\n1cnc(-c2cc(C(F)(F)F)cc(C(F)(F)F)c2)n1)NNc1cnccn1 [Selinexor, reference compound]
ORR: 13%
